In one data set the test system is human glioma cells (U87). Put plainly: In vitro toxicity / cell growth inhibition, XTT assay, U87 cells. Format: cell-based. The note with it: 100 μM, 72 hours later. (In general: Tetrazolium assays rely on reduction of a dye to a coloured formazan, in cell work by metabolically active cells.)
For a further data set, the system named is mouse glioma cells (C6). The data set can be described thus: In vitro toxicity / cell growth inhibition, XTT assay, C6 cells. The format is cell-based. The note with it: 100 μM, 12 hours later.
Data set [1] is described as follows: Storage stability, residual activity by Bratton-Marshall assay. An excerpt:
Use the Bratton-Marshall assay to detect the residual activities after the storages of 1-30 days for comparing the storage stabilities. Refer to FIGS. 5(a)-5(c).

Broadly, the half-life is how long it takes for the measured level to halve. Lower therefore signals fast loss.

Description for human glioma cells (U87): Place 150 μL of a mixture liquid containing 10000 human glioma cells (U87) into every well of a 96-well culture plate. Place the culture plates in a humidified incubator at a temperature of 37 C.° and with 5% CO2 to enable adherent growth of the cells. […] Once cell counting begins, remove RPMI1640 and add 120 μL of an XTT reaction liquid (2,3-Bis(2-methoxy-4-nitro-5-sulfophenyl)-2H-tetrazolium-5-carboxanili de inner salt).
Description for mouse glioma cells (C6): Place 150 μL of a mixture liquid containing 10000 mouse glioma cells (C6) into every well of a 96-well culture plate. Place the culture plates in a humidified incubator at a temperature of 37 C.° and with 5% CO2 to enable adherent growth of the cells. […] Once cell counting begins, remove RPMI1640 and add 120 μL of an XTT reaction liquid (2,3-Bis(2-methoxy-4-nitro-5-sulfophenyl)-2H-tetrazolium-5-carboxanili de inner salt).

Regarding `O=NN(CCCl)C(=O)NCCCl` [BCNU, 1,3-bis(2-chloroethyl)-1-nitrosourea], in the data set on human glioma cells (U87), the “U87 cell growth-inhibition ratio” value is 49%. The “C6 cell growth-inhibition ratio” value with mouse glioma cells (C6) is 53%. The solubility in water entry in “Solubility in water” is listed as “low solubility in water”. Moreover, the half-life in data set [1] (storing at 4° C.) is 18000 min; in data set [1] (storing at 25° C.), 1320 min; in data set [1] (storing at 37° C.), 720 min. The compound also came in with a remains after storage in data set [1] (stored for 30 days) of 22%.

The values above are taken from patent US8992990B2, “Magnetic nanocomposite for inhibiting/treating cancer and method for fabricating the same” (Chang Gung University, priority 2009, dated 2015).
